Patent US7592478B2, “Ligand antagonists of RAR receptors and pharmaceutical/cosmetic applications thereof” (Galderma Research & Development, priority 2002, dated 2009)

Tests used:
Format in all cases: cell-based
RAR alpha = biological target: T1, RAR alpha (Homo sapiens, UniProt P10276); test: Transactivation test (luciferase reporter, stably transfected HeLa cells), RAR alpha; conditions: for Kd: Schild regression vs reference agonist 4-[2-(5,5,8,8-tetramethyl-5,6,7,8-tetrahydro-2-naphthyl)propenyl]benzoic acid, read-out: RAR alpha Kdapp; for IC50: at the reference agonist concentration that gives 80% activation
T1 sequence (P10276 183-417 limits assumed): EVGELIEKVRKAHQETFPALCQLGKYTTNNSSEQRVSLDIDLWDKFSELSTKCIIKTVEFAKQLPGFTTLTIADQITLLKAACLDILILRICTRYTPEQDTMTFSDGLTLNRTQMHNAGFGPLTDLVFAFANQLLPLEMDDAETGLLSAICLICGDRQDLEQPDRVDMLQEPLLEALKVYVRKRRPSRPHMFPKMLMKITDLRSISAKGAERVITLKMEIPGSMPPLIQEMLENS
Protocol: (§1) The activation of receptors with an agonist (activator) in HeLa cells leads to the expression of a reporter gene, luciferase, which, in the presence of a substrate, generates light. The activation of the receptors may thus be measured by quantifying the luminescence produced after incubating the cells in the presence of a reference agonist. The inhibitory products displace the agonist from its site, thus preventing activation of the receptor. The activity is measured by quantifying the reduction in light produced. This measurement makes it possible to determine the inhibitory activity of the compounds according to the invention.
(§2) In this study, a constant is determined which represents the affinity of the molecule for the receptor. Since this value can fluctuate depending on the basal activity and the expression of the receptor, it is referred to as the Kd apparent (KdApp).
(§3) To determine this constant, “crossed curves” of the test product against a reference agonist, 4-[2-(5,5,8,8-tetramethyl-5,6,7,8-tetrahydro-2-naphthyl)propenyl]benzoic acid, are performed in 96-well plates. The test product is used at 10 concentrations and the reference agonist at 7 concentrations. In each well, the cells are in contact with a concentration of the test product and a concentration of the reference agonist, 4-[2-(5,5,8,8-tetramethyl-5,6,7,8-tetrahydro-2-naphthyl)propenyl]benzoic acid. Measurements are also taken for the total agonist (4-[2-(5,5,8,8-tetramethyl-5,6,7,8-tetrahydro-2-naphthyl)propenyl]benzoic acid) and inverse agonist, 4-{(E)-3-[4-(4-tert-butylphenyl)-5,5,8,8-tetramethyl-5,6,7,8-tetrahydro-2-naphthyl]-3-oxopropenyl}benzoic acid, controls.
(§4) These crossed curves make it possible to determine the AC50 values (concentration at which 50% activation is observed) for the reference ligand at various concentrations of test product. These AC50 values are used to calculate the Schild regression by plotting a straight line corresponding to the Schild equation (“quantitation in receptor pharmacology” Terry P. Kenakin, Receptors and Channels, 2001, 7, 371-385).
(§5) In the case of an antagonist, an IC50 value (concentration that inhibits 50% of the activity) is calculated by plotting the curve of the product at the concentration of the reference ligand that gives 80% activation.
(§6) The HeLa cell lines used are stable transfectants containing the plasmids ERE-βGlob-Luc-SV-Neo (reporter gene) and RAR (α, β, γ) ER-DBD-puro. These cells are inoculated into 96-well plates at a rate of 10000 cells per well in 100 μl of DMEM medium without phenol red, and supplemented with 10% defatted calf serum. The plates are then incubated at 37° C. and 7% CO2 for 4 hours.
(§7) The various dilutions of the test products, of the reference ligand (4-[2-(5,5,8,8-tetramethyl-5,6,7,8-tetrahydro-2-naphthyl)propenyl]benzoic acid), of the 100% control (100 nM 4-[2-(5,5,8,8-tetramethyl-5,6,7,8-tetrahydro-2-naphthyl)propenyl]benzoic acid) and of the 0% control (500 nM 4-{(E)-3-[4-(4-tert-butylphenyl)-5,5,8,8-tetramethyl-5,6,7,8-tetrahydro-2-naphthyl]-3-oxopropenyl}benzoic acid) are added at a rate of 5 μl per well. The plates are then incubated for 18 hours at 37° C. and 7% CO2.
(§8) The culture medium is removed by turning over and 100 μl of a 1:1 PBS/luciferine mixture is added to each well. After 5 minutes, the plates are read using the luminescence reader.

RAR beta = biological target: T2, RAR beta (Homo sapiens, UniProt P10826); test: Transactivation test (luciferase reporter, stably transfected HeLa cells), RAR beta; conditions: for Kd: Schild regression vs reference agonist 4-[2-(5,5,8,8-tetramethyl-5,6,7,8-tetrahydro-2-naphthyl)propenyl]benzoic acid, read-out: RAR beta Kdapp; for IC50: at the reference agonist concentration that gives 80% activation
T2 sequence (P10826 183-417 limits assumed): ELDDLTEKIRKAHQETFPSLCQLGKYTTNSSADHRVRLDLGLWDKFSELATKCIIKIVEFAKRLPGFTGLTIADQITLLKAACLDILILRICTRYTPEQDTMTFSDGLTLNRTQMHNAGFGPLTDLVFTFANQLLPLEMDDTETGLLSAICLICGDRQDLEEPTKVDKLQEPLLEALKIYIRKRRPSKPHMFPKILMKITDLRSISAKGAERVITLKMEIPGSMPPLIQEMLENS
Protocol: as §1, §2, §3, §4, §5, §6, §7, §8

RAR gamma = biological target: T3, RAR gamma (Homo sapiens, UniProt P13631); test: Transactivation test (luciferase reporter, stably transfected HeLa cells), RAR gamma; conditions: for Kd: Schild regression vs reference agonist 4-[2-(5,5,8,8-tetramethyl-5,6,7,8-tetrahydro-2-naphthyl)propenyl]benzoic acid, read-out: RAR gamma Kdapp; for IC50: at the reference agonist concentration that gives 80% activation
T3 sequence (P13631 185-419 limits assumed): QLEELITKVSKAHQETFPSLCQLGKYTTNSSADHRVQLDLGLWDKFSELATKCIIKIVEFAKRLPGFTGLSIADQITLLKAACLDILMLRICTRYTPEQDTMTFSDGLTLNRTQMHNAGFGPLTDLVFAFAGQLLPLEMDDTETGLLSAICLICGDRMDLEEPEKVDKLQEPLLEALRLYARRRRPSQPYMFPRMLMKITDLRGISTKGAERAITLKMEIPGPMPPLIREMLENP
Protocol: as §1, §2, §3, §4, §5, §6, §7, §8

Kd (RAR alpha)	IC50 (RAR alpha)	Kd (RAR beta)	IC50 (RAR beta)	Kd (RAR gamma)	IC50 (RAR gamma)	Compound
30 nM	52.5 nM	8 nM	12.8 nM	2 nM	5 nM	Cc1ccc(C2=CCC(C)(C)c3cc([Se]C#Cc4ccc(C(=O)O)cc4)ccc32)cc1 [Example 1, 4-(8,8-Dimethyl-5-p-tolyl-7,8-dihydro-2-naphthylselanylethynyl)benzoic acid]
120 nM	210 nM	8 nM	12.8 nM	2 nM	5 nM	Cc1ccc(C2=CCC(C)(C)c3cc([Se]C#Cc4ccc(C(=O)O)c(F)c4)ccc32)cc1 [Example 9, 4-(8,8-Dimethyl-5-p-tolyl-7,8-dihydro-2-naphthylselanylethynyl)-2-fluorobenzoic acid]
500 nM	875 nM	120 nM	192 nM	60 nM	150 nM	CN(C)c1ccc(C2=CCC(C)(C)c3cc(C(O)C#Cc4ccc(C(=O)O)cc4)ccc32)cc1 (stereo not drawn) [Example 19, 4-{3-[5-(4-Dimethylaminophenyl)-8,8-dimethyl-7,8-dihydro-2-naphthyl]-3-hydroxyprop-1-ynyl}benzoic acid]
